Data on 24 molecules can be found in ChEMBL document CHEMBL3217700, “Synthesis and SAR studies of benzimidazole derivatives as melanin concentrating hormone receptor 1 (MCHR1) antagonists: Focus to detune hERG inhibition” (Medchemcomm, 2011).

For series [1], the target named is hERG (KCNH2) (Homo sapiens, UniProt Q12809). Description: Inhibition of human ERG expressed in HEK293 cells at 1 uM after 5 mins by patch clamp assay. Format: cell-based. Particulars: HEK293 cells that express hERG. (In general: The patch-clamp technique gives a direct electrical read-out from membranes.)
hERG (KCNH2), sequence (Q12809 whole entry): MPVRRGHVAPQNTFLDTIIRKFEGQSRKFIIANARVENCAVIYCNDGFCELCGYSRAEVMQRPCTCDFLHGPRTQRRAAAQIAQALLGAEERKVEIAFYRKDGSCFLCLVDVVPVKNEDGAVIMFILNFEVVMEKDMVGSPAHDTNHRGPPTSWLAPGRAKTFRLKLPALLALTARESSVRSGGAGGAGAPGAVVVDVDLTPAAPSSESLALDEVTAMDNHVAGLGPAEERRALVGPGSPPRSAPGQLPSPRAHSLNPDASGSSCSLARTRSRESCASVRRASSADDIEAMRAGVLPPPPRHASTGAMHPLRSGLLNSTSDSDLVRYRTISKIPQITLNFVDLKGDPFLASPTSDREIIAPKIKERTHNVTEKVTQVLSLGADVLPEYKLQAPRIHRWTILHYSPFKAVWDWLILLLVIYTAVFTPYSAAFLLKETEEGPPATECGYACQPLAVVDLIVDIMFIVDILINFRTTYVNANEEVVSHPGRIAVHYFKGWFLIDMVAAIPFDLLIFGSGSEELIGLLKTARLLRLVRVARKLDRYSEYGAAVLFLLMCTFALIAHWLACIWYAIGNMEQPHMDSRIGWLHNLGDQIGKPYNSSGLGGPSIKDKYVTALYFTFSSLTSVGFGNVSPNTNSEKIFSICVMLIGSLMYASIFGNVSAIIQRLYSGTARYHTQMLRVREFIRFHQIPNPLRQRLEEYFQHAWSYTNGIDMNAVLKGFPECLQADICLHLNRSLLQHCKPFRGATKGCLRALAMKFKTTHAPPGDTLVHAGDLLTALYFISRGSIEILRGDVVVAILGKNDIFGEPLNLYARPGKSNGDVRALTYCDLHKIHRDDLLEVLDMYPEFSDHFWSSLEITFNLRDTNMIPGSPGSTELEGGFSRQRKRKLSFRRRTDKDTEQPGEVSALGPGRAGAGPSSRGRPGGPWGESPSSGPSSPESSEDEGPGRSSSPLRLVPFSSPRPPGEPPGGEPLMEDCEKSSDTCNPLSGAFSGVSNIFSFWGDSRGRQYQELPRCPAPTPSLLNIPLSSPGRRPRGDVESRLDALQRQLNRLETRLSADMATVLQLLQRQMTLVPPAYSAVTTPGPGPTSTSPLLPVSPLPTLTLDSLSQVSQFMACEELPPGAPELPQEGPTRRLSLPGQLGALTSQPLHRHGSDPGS
The species named for series [2] is Homo sapiens. Description: Selectivity ratio of IC50 for human ERG to IC50 for MCHR1 (unknown origin) assessed as IP3 levels by cell-based functional assay.
Series [3] has as its target T1, Melanin-concentrating hormone receptor 1 (Homo sapiens, UniProt Q99705). Description: Displacement of [125I]MCH from human recombinant MCHR1 expressed CHO-K1 cell membrane by SPA-YSI assay. The class given is cell membranes. (In general: In a radioligand displacement assay an active substance lowers the binding of a labelled ligand.)
The target of series [4] is T1, Melanin-concentrating hormone receptor 1. The series can be described thus: Antagonist activity at MCHR1 (unknown origin) assessed as IP3 levels by cell-based functional assay.
For series [5], the target named is Voltage-gated inwardly rectifying potassium channel KCNH2 (Homo sapiens, UniProt Q12809). Description: Inhibition of human ERG expressed in HEK293 cells after 5 mins by patch clamp assay. The class given is cell-based.
Voltage-gated inwardly rectifying potassium channel KCNH2, sequence (Q12809 whole entry): as above

T1 sequence (Q99705 whole entry): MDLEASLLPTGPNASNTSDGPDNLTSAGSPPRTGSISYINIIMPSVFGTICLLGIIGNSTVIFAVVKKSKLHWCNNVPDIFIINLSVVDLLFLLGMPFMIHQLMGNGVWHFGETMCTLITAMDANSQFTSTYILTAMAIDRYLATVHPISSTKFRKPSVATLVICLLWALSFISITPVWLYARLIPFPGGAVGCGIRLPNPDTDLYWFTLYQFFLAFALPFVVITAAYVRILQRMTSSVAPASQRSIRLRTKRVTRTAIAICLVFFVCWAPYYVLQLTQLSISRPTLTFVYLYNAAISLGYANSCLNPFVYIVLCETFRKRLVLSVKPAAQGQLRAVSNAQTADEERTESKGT

Usually inhibition stands for the drop in the measured response relative to a control, in per cent. Read a high inhibition as a strong effect. Usually IC50 stands for the concentration that inhibits the measured activity by half. Turning to `CC(=O)Nc1cccc(C2CCN(Cc3ccc(Cc4nc5ccccc5n4-c4ccc(F)cc4)cc3C#N)CC2)c1`, the inhibition at 5 min, 1 µM in series [1] was found to be 42%. Besides, the Ratio IC50 in series [2] worked out at 131. The half-inhibitory concentration (IC50) is 10 nM in series [3] and 3 nM in series [4].

On to `CC(=O)Nc1cccc(C2CCN(Cc3ccc(C(=O)c4nc5ccccc5n4-c4ccc(Cl)cc4)cc3)CC2)c1`, for which the results for the IC50 in series [5], in series [3] and in series [4] were 1700 nM, 34 nM and 217 nM, respectively. Further, the Ratio IC50 in series [2] was 26.

In series [1], `CC(=O)Nc1cccc(C2CCN(Cc3ccc(Cc4nc5ccccc5n4-c4ccc(F)cc4)cc3)CC2)c1` had an inhibition at 5 min, 1 µM of 98%. For the same molecule, the results for the IC50 in series [3] and in series [4] were 0.9 nM and 3 nM, respectively.

Regarding `CC(=O)Nc1cccc(C2CCN(Cc3ccc(C(=O)c4nc5c(F)cc(F)cc5n4-c4ccc(F)cc4)cc3)CC2)c1`, in series [1], the inhibition at 5 min, 1 µM was found to be 70%. Moreover, the concentration for half-maximal inhibition (IC50) was 15 nM in series [3] and 43 nM in series [4].

With `CC(=O)Nc1cccc(C2CCN(Cc3ccc(C(=O)c4nc5ccccc5n4C4CCOCC4)cc3)CC2)c1`, the IC50 was 1200 nM in series [5], 55 nM in series [3] and 47 nM in series [4]. In addition, the Ratio IC50 in series [2] is 24.

Regarding `CC(=O)Nc1cccc(C2CCN(Cc3ccc(C(=O)c4nc5ccccc5n4-c4ccc(F)cc4)cc3Cl)CC2)c1`, the half-inhibitory concentration (IC50) in series [3] was found to be 184 nM; in series [4] it was 336 nM.

Regarding `CC(=O)Nc1cccc(C2CCN(CCCNc3nc4ccccc4n3-c3ccc(F)cc3)CC2)c1`, the Ratio IC50 in series [2] was found to be 3.

Consider `CC(=O)Nc1cccc(C2CCN(Cc3ccc(C(=O)c4nc5ccccc5n4-c4ccc(F)cc4)cc3C(F)(F)F)CC2)c1`, for which the IC50 is 3250 nM in series [3] and over 10000 nM in series [4].

On to `CC(=O)Nc1cccc(C2CCN(Cc3ccc(C(=O)c4nc5ccccc5n4-c4ccc(F)cc4)cc3C#N)CC2)c1`, for which the IC50 in series [3] was determined as 651 nM; in series [4], 385 nM.

In turn, `CC(=O)Nc1cccc(C2CCN(Cc3ccc(C(=O)c4nc5cnccc5n4-c4ccc(F)cc4)cc3)CC2)c1` registered an inhibition at 5 min, 1 µM in series [1] of 36%. Further, the values for the IC50 in series [3] and in series [4] were 12 nM and 59 nM, respectively.

Regarding `CC(=O)Nc1cccc(C2CCN(Cc3ccc(C(=O)c4nc5ccccc5n4-c4ccc(F)cc4)cc3F)CC2)c1`, the IC50 in series [3] stood at 46 nM; in series [4], 80 nM.

The molecule `CC(=O)Nc1cccc(C2CCN(Cc3ccc(C(=O)c4nc5ccccc5n4-c4ccc(F)cc4)nc3)CC2)c1` showed an inhibition at 5 min, 1 µM in series [1] of 37%. In addition, the results for the IC50 in series [3] and in series [4] were 11 nM and 37 nM, respectively.

Take `CC(=O)Nc1cccc(C2CCN(Cc3ccc(C(=O)c4nc5ccccc5n4-c4ccc(C(F)(F)F)cc4)cc3)CC2)c1`: the IC50 in series [3] is 1000 nM; in series [4] it was 1370 nM.

Molecule `CC(=O)Nc1cccc(C2CCN(Cc3ccc(Oc4nc5ccccc5n4-c4ccc(F)cc4)cc3)CC2)c1` showed an inhibition at 5 min, 1 µM in series [1] of 80%. Moreover, the figures for the concentration for half-maximal inhibition (IC50) in series [3] and in series [4] were 8 nM and 53 nM, respectively.

As to `CC(=O)Nc1cccc(C2CCN(Cc3ccc(C(=O)c4nc(C)c(C)n4-c4ccc(F)cc4)cc3)CC2)c1`, the IC50 is 1700 nM in series [5], 22 nM in series [3] and 96 nM in series [4]. In addition, the Ratio IC50 in series [2] amounted to 18.

Molecule `CC(=O)Nc1cccc(C2CCN(Cc3ccc(C(=O)c4nc5ccccc5n4-c4ccc(F)cc4)cn3)CC2)c1` showed an inhibition at 5 min, 1 µM in series [1] of 27%. For the same molecule, the IC50 in series [3] worked out at 27 nM; in series [4] it was 66 nM.

As for `CC(=O)Nc1cccc(C2CCN(Cc3ccc(C(=O)c4nc5ccccc5n4-c4ccc(C#N)cc4)cc3)CC2)c1`, the figures for the IC50 in series [3] and in series [4] were 172 nM and 260 nM, respectively.

Take `CC(=O)Nc1cccc(C2CCN(C(C)c3ccc(C(=O)c4nc5ccccc5n4-c4ccc(F)cc4)cc3)CC2)c1` (stereo unspecified): the IC50 in series [3] came out at 150 nM; in series [4], 259 nM.

Consider `CC(=O)Nc1cccc(C2CCN(Cc3ccc(C(=O)c4nc5ccccc5n4C4CC4)cc3)CC2)c1`, for which the IC50 in series [3] is 271 nM; in series [4] it was 412 nM.

In turn, `CC(=O)Nc1cccc(C2CCN(Cc3ccc(C(=O)c4nc5cccnc5n4-c4ccc(F)cc4)cc3)CC2)c1` showed an inhibition at 5 min, 1 µM in series [1] of 58%. The IC50 in series [3] amounted to 14 nM; in series [4], 53 nM.

On to `CC(=O)Nc1cccc(C2CCN(Cc3ccc(C(=O)c4nc5ccccc5n4C(C)C)cc3)CC2)c1`, for which the IC50 in series [3] was found to be 138 nM; in series [4], 131 nM.

Consider `CC(=O)Nc1cccc(C2CCN(Cc3ccc(C(=O)c4nc5ccccc5n4C)cc3)CC2)c1`, for which the IC50 was 289 nM in series [3] and 817 nM in series [4].

Consider `CC(=O)Nc1cccc(C2CCN(CCCCc3nc4ccccc4n3-c3ccc(F)cc3)CC2)c1`, for which, in series [2], the Ratio IC50 was 10.

`CC(=O)Nc1cccc(C2CCN(Cc3ccc(C(=O)c4nc5ccccc5n4-c4ccc(F)cc4)cc3)CC2)c1`: the values for the IC50 in series [3] and in series [4] were 11 nM and 15 nM, respectively.
